Laboratory results taken from EP1607399B1 (priority 2000, dated 2001).

System: RPMI 8322 human melanoma cells
Type: cell-based
Settings: read-out: µM to 50% cell viability

`Cc1ccc(S(=O)(=O)NCCOP(=O)(N(CCCl)CCCl)N(CCCl)CCCl)cc1` [Compound 23] gave an IC50 greater than 500 µM.
